Test results: patent US20230027985A1, “SUBSTITUTED HYDANTOINAMIDES AS ADAMTS7 ANTAGONISTS” (Bayer Aktiengesellschaft, priority 2019, published 2023)

Assays:
[1] = molecular target: T1, Purified recombinant ADAMTS-7 (rat prodomain/human catalytic domain, SEQ ID No. 01 or 02) (Homo sapiens, UniProt Q9UKP4); experiment: Assay for ADAMTS-7 enzymatic activity (FRET substrate cleavage); type: biochemical; conditions: FRET substrate SEQ ID No. 11, 120 min at 32° C.; read-out: ADAMTS7-IC50
T1 construct: rat ADAMTS-7 signal peptide + prodomain (rat 1-217, Q1EHB3) (N); 2xStrep tag (C); 6xHis tag (C); made in house; host or cells: Expi293 cells
T1 sequence (Q9UKP4 237-537): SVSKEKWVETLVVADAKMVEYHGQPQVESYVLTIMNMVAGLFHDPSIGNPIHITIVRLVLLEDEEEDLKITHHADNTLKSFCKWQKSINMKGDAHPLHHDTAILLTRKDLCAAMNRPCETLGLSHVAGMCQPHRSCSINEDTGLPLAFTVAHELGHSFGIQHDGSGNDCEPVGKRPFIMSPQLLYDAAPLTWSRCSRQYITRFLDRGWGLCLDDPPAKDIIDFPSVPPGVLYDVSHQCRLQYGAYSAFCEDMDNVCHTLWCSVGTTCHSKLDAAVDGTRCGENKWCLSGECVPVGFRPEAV
Description: Purified recombinant ADAMTS-7 (as of SEQ ID No. 01 or SEQ ID No. 02) was diluted in reaction buffer (20 mM HEPES pH 8.0, 150 mM NaCl, 5 mM CaCl2, 0.004% Brij, 10 μM ZnCl2) fora concentration of approximately 20 nM. 25 μl of the solution were transferred into each well of a 384-well white microtiter plate (Greiner Bio-One 781075) and 1 μl test compound solution (modulator/inhibitor dissolved in DMSO, at the corresponding concentration) or pure DMSO as a control were added per well. […] Amino acids […] are derived from Thrombospondin-1 sequence (275-289). An additional carboxyl glutamic acid was added after the QXL520 quencher to increase substrate solubility. The microtiter plate was incubated for 120 min at the temperature of 32° C. The increase of fluorescence intensity was measured in appropriate fluorescence plate reader (e.g. TECAN Ultra) using excitation wavelength of 485 nm and emission wavelength of 520 nm. IC50 values were calculated from percentage of inhibition of ADAMTS-7 activity as a function of test compound concentration.

ADAMTS4 = molecular target: T2, ADAMTS4 (Homo sapiens, UniProt O75173); experiment: Selectivity assay for ADAMTS-7 modulators (FRET), ADAMTS4; type: biochemical; conditions: 50 nM enzyme (R&D 4307-AD), 1 μM Dabcyl/Edans FRET substrate, 120 min at 32° C.
T2 construct: purchased R&D 4307-AD
T2 sequence (O75173 213-685 limits assumed): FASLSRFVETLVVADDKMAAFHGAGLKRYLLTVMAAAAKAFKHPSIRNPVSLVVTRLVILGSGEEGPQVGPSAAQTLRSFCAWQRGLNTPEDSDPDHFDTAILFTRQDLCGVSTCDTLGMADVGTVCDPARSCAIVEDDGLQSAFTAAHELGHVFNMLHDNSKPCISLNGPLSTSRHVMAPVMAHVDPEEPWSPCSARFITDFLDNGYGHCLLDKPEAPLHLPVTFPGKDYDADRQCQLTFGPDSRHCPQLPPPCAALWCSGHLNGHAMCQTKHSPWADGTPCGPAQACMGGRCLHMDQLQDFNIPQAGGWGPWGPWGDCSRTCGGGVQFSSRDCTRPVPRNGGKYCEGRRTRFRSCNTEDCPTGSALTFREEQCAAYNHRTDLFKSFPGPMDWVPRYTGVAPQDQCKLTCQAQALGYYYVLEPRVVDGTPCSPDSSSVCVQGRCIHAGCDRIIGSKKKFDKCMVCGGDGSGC
Description: The respective enzyme (see table 2 below) was diluted in reaction buffer (50 mM Tris, 2.5 μM ZnCl2, 0.05% BSA, 0.001% Brij, pH 7.5 for ADAM17; 50 mM Tris 7.5, 150 mM NaCl, 10 mM CaCl2, 0.05% Brij for all other enzymes) to the respective concentration and 25 μl were transferred into each well of a 384-well white microtiter plate (Greiner Bio One 781075). 1 μl test compound solution (dissolved in DMSO, at the corresponding concentration) or pure DMSO as a control was added per well. The enzymatic reaction was initiated by addition of 25 μl of the respective concentration of the respective FRET substrate (see table 2 below) in reaction buffer. The microtiter plate was incubated for 120 min at the temperature of 32° C. The increase of fluorescence intensity was measured in appropriate fluorescence plate reader (e.g. TECAN Ultra) using the respective wavelengths for excitation and emission. IC50 values were calculated from percentage of inhibition of enzyme activity as a function of test compound concentration.

| IC50 [1] | IC50 (ADAMTS4) | Structure (SMILES) |
| --- | --- | --- |
| 29 nM | 2400 nM | O=C1NC(=O)C(CNC(=O)c2cnn(-c3ccc(F)cc3)n2)(c2ccnn2C(F)F)N1 (racemic) [Example 128, rac-N-({4-[1-(difluoromethyl)-1H-pyrazol-5-yl]-2,5-dioxoimidazolidin-4-yl}methyl)-2-(4-fluorophenyl)-2H-1,2,3-triazole-4-carboxamide] |
| 3 nM | 46 nM | Cn1ccnc1C1(CNC(=O)c2cnn(-c3ccc(F)c(F)c3)n2)NC(=O)NC1=O (single isomer, unassigned; ent-2) [Example 147, ent-2-(3,4-difluorophenyl)-N-{[4-(1-methyl-1H-imidazol-2-yl)-2,5-dioxoimidazolidin-4-yl]methyl}2H-1,2,3-triazole-4-carboxamide] |
| 63 nM | 8500 nM | O=C1NC(=O)C(CNC(=O)c2cnn(-c3ccc(F)cc3F)n2)(C2CCC2)N1 (stereo not drawn) [Example 86, ent-N-{[4-cyclobutyl-2,5-dioxoimidazolidin-4-yl]methyl}-2-(2,4-difluorophenyl)-2H-1,2,3-triazole-4-carboxamide] |
| 35 nM | 910 nM | O=C1NC(=O)[C@](CNC(=O)c2cnn(-c3ccc(Cl)c(Cl)c3)n2)(C2CC2)N1 [Example 32, N-{[(4R)-4-cyclopropyl-2,5-dioxoimidazolidin-4-yl]methyl}-2-(3,4-dichlorophenyl)-2H-1,2,3-triazole-4-carboxamide] |
| 120 nM | 8300 nM | CCCCC1(CNC(=O)c2cnn(-c3ccc(F)cc3)n2)NC(=O)NC1=O (racemic) [Example 68, rac-N-[(4-butyl-2,5-dioxoimidazolidin-4-yl)methyl]-2-(4-fluorophenyl)-2H-1,2,3-triazole-4-carboxamide] |
| 130 nM | 7100 nM | O=C1NC(=O)[C@](CNC(=O)c2cnn(-c3ccc(Cl)cc3Cl)n2)(C2CC2)N1 [Example 161, N-{[(4R)-4-cyclopropyl-2,5-dioxoimidazolidin-4-yl]methyl}-2-(2,4-dichlorophenyl)-2H-1,2,3-triazole-4-carboxamide] |
| 78 nM | 2600 nM | CC(C)C1(CNC(=O)c2cnn(-c3cccc(C#N)c3)n2)NC(=O)NC1=O (single isomer, unassigned; ent-2) [Example 121, ent-2-(3-cyanophenyl)-N-[(4-isopropyl-2,5-dioxoimidazolidin-4-yl)methyl]-2H-1,2,3-triazole-4-carboxamide] |
| 50 nM | 3200 nM | O=C1NC(=O)C(CNC(=O)c2cnn(-c3ccc(F)cc3)n2)(c2ccnn2CC(F)(F)F)N1 (racemic) [Example 133, rac-N-({2,5-dioxo-4-[1-(2,2,2-trifluoroethyl)-1H-pyrazol-5-yl]imidazolidin-4-yl}methyl)-2-(4-fluorophenyl)-2H-1,2,3-triazole-4-carboxamide] |
| 11 nM | 2500 nM | CC(C)C1(CNC(=O)c2cnn(-c3ccc(F)c(F)c3)n2)NC(=O)NC1=O (racemic) [Example 122, rac-2-(3,4-difluorophenyl)-N-[(4-isopropyl-2,5-dioxoimidazolidin-4-yl)methyl]-2H-1,2,3-triazole-4-carboxamide] |
| 76 nM | 10000 nM | CC(C)C1(CNC(=O)c2cnn(-c3ccccc3)n2)NC(=O)NC1=O (stereo not drawn) [Example 70, ent-N-[(2,5-dioxo-4-(propan-2-yl)imidazolidin-4-yl)methyl]-2-phenyl-2H-1,2,3-triazole-4-carboxamide] |
| 26 nM | 1420 nM | O=C1NC(=O)[C@](CNC(=O)c2cnn(-c3ccc(F)cc3)n2)(C2CC2)N1 [Example 34, N-{[(4R)-4-cyclopropyl-2,5-dioxoimidazolidin-4-yl]methyl}-2-(4-fluorophenyl)-2H-1,2,3-triazole-4-carboxamide] |
| 670 nM | 25000 nM | O=C1NC(=O)C(CNC(=O)c2cnn(-c3ccccc3)n2)(CC2CC2)N1 (racemic) [Example 54, rac-N-[(4-(cyclopropylmethyl)-2,5-dioxoimidazolidin-4-yl)methyl}]-2-phenyl-2H-1,2,3-triazole-4-carboxamide] |
| 560 nM | 5000 nM | CC1(CNC(=O)c2cnn(-c3ccc(F)cc3)n2)NC(=O)NC1=O (racemic) [Example 152, rac-2-(4-fluorophenyl)-N-[(4-methyl-2,5-dioxoimidazolidin-4-yl)methyl]-2H-1,2,3-triazole-4-carboxamide] |
| 980 nM | 12000 nM | Cc1ccccc1-n1ncc(C(=O)NC[C@@]2(C3CC3)NC(=O)NC2=O)n1 [Example 12, N-{[(4R)-4-cyclopropyl-2,5-dioxoimidazolidin-4-yl]methyl}-2-(2-methylphenyl)-2H-1,2,3-triazole-4-carboxamide] |
| 190 nM | 6200 nM | O=C1NC(=O)[C@](CNC(=O)c2cnn(-c3ncc(F)cc3F)n2)(C2CC2)N1 [Example 134, N-{[(4R)-4-cyclopropyl-2,5-dioxoimidazolidin-4-yl]methyl}-2-(3,5-difluoropyridin-2-yl)-2H-1,2,3-triazole-4-carboxamide] |
| 10 nM | 980 nM | O=C1NC(=O)C(CNC(=O)c2cnn(-c3ccc(Cl)cc3)n2)(C2CCC2)N1 (single isomer, unassigned; ent-2) [Example 95, ent-2-(4-chlorophenyl)-N-[(4-cyclobutyl-2,5-dioxoimidazolidin-4-yl)methyl]-2H-1,2,3-triazole-4-carboxamide] |
| 260 nM | 9300 nM | O=C1NC(=O)C(CNC(=O)c2cnn(-c3ccc(F)cc3)n2)(C2CCOCC2)N1 (racemic) [Example 67, rac-2-(4-fluorophenyl)-N-[4-(oxan-4-yl)-2,5-dioxoimidazolidin-4-yl)methyl]-2H-1,2,3-triazole-4-carboxamide] |
| 42 nM | 16000 nM | CC(C)C1(CNC(=O)c2cnn(-c3ccc(F)cc3)n2)NC(=O)NC1=O (racemic) [Example 62, rac-N-[(2,5-dioxo-4-(propan-2-yl)imidazolidin-4-yl)methyl]-2-(4-fluorophenyl)-2H-1,2,3-triazole-4-carboxamide] |
| 10 nM | 2400 nM | Cn1nccc1C1(CNC(=O)c2cnn(-c3ccc(F)cc3)n2)NC(=O)NC1=O (racemic) [Example 127, rac-2-(4-fluorophenyl)-N-{[4-(1-methyl-1H-pyrazol-5-yl)-2,5-dioxoimidazolidin-4-yl]methyl}-2H-1,2,3-triazole-4-carboxamide] |
| 130 nM | 6200 nM | O=C1NC(=O)C(CNC(=O)c2cnn(-c3ccc(F)cc3)n2)(CC2CC2)N1 (stereo not drawn) [Example 72, ent-N-[(4-(cyclopropylmethyl)-2,5-dioxoimidazolidin-4-yl]methyl]-2-(4-fluorophenyl)-2H-1,2,3-triazole-4-carboxamide] |

| Structure (SMILES) | IC50 [1] | IC50 (ADAMTS4) |
| --- | --- | --- |
| O=C1NC(=O)[C@](CNC(=O)c2cnn(-c3ccccc3)n2)(C2CC2)N1 [Example 45, N-{[(4R)-4-cyclopropyl-2,5-dioxoimidazolidin-4-yl]methyl}-2-phenyl-2H-1,2,3-triazole-4-carboxamide] | 69 nM | 1450 nM |
